Test results reported in article PMC11811690 (Angewandte Chemie (International Ed. in English), 2024).
≈ marks a conversion by molar mass, not a printed value. Like-named read-outs stand apart in the source and are kept apart here.

How the values were obtained:
[1] = tested on: M. tuberculosis H37Rv poly-g-GFP; assay: microbe, parasite or virus in culture; format: cell-based; conditions: Mycobacterium tuberculosis, 336 h, read-out: MIC Mtb H37Rv-poly-g-GFP, turbidity read-out
[2] = tested on: M. tuberculosis H37Rv poly-g-GFP; assay: microbe, parasite or virus in culture; format: cell-based; conditions: for IC90: Mycobacterium tuberculosis, H37RV, 240 h, read-out: IC90 Mtb H37Rv-poly-g-GFP, fluorescence read-out
C. difficile 630 = assay: microbe, parasite or virus in culture; format: cell-based, Clostridioides difficile; conditions: C. difficile 630, anaerobic, overnight, growth suppressed to OD600 < 0.15; for MIC: Clostridioides difficile, read-out: MIC C. difficile
C. crescentus pfhuA = assay: Inhibition zone (Kirby-Bauer disk diffusion), C. crescentus pfhuA; conditions: 20 µg per disk, 24 h, 30 °C, permeable strain
Method: All the C. crescentus strains were cultivated in peptone-yeast extract medium (PYE) and incubated
at 30 °C under aerobic conditions. All plasmids were maintained with 1 µg/ml of gentamicin
(Gibco, #15710-049) in the media and induced with 0.5 mM IPTG (Isopropyl b-D-thiogalactoside,
Biosolve chimie, #0016242362BS). Inhibition assay was carried out in a 14 cm diameter petri dish
with 50 mL of 1.5% agar PYE, with an overlay of 12 mL of 0.375% agar PYE supplemented with
600 µL of overnight culture of the strain of interest, appropriate antibiotics and inducer. After
polymerisation, paper disks (Bio-rad #1660468EDU) with 20 µg of each selected compound
dissolved in DMSO were placed on the surface. After 24 h of incubation at 30 °C, the area with no
visible growth was measured using ImageJ (version: Java 1.8.0_345 64bit).

[3] = tested on: C. crescentus pfhuA_ΔacrAB-nodT; format: cell-based; conditions: disk diffusion, 20 µg per disk, 24 h, 30 °C; permeable and efflux-deficient strain
M. tuberculosis RNAP = target: T1, M. tuberculosis RNAP (Mycobacterium tuberculosis, UniProt P9WGY7+P9WGY9); assay: biochemical; conditions: fluorescent run-off transcription assay, triplicate, mean ± s.d.; read-out: IC50 Mtb RNAP, fluorescence read-out
T1 construct: made in house; host or cells: E. coli BL21(DE3) is stated for σA only

[4] = concentration for 90 % inhibition of fluorescence as proxy for growth inhibition, 10 days, 37 °C
[5] = 14 days, 37 °C, turbidity by eye

T1 sequence (P9WGY9 whole entry): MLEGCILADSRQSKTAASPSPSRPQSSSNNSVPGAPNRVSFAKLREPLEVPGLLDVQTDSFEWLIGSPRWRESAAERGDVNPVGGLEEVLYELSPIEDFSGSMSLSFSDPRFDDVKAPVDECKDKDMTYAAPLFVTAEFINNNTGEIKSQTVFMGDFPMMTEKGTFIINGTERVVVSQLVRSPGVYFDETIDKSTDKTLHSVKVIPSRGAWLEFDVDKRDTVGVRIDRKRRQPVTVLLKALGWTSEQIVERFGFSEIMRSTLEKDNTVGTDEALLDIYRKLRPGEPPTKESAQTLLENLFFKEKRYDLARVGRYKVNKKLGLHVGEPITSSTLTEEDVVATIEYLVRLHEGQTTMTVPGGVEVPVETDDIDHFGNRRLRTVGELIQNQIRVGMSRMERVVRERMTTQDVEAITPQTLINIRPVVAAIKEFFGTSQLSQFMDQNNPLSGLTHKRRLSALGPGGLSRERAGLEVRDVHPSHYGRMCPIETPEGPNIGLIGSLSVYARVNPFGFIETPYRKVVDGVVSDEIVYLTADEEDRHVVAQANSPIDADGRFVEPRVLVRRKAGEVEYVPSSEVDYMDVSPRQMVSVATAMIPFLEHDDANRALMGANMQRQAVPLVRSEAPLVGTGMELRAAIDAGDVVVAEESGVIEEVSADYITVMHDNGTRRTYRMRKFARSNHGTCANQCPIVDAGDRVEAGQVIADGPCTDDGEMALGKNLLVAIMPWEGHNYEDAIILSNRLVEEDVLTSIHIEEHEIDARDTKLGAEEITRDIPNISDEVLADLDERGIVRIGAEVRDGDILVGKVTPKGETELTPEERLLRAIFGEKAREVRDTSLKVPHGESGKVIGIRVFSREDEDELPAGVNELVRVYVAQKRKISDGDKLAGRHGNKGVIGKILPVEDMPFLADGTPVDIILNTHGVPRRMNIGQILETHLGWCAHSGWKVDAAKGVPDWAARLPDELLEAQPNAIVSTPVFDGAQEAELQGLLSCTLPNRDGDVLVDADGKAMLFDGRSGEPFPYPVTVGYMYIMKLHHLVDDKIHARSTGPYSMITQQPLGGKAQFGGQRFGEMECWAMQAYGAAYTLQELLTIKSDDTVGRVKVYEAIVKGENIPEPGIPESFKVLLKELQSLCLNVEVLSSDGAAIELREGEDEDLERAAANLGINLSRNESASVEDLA
T1 sequence (P9WGY5 whole entry, further chain): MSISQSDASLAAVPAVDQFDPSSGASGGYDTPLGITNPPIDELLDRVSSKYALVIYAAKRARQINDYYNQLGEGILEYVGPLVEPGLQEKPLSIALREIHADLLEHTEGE
T1 sequence (P9WGZ1 whole entry, further chain): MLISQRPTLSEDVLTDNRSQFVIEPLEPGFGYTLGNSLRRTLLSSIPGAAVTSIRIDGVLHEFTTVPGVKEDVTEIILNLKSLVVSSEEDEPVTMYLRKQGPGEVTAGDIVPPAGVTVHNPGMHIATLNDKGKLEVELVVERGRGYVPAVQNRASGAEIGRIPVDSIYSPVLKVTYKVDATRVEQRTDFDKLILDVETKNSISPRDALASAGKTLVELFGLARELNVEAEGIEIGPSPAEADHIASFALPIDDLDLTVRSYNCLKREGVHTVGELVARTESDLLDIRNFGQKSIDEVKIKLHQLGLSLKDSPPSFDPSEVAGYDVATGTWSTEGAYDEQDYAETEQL
T1 sequence (P9WHJ5 whole entry, further chain): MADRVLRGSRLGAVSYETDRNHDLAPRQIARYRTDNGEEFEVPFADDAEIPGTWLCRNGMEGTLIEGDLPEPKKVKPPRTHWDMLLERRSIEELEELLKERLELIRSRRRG
T1 sequence (P9WGY7 whole entry): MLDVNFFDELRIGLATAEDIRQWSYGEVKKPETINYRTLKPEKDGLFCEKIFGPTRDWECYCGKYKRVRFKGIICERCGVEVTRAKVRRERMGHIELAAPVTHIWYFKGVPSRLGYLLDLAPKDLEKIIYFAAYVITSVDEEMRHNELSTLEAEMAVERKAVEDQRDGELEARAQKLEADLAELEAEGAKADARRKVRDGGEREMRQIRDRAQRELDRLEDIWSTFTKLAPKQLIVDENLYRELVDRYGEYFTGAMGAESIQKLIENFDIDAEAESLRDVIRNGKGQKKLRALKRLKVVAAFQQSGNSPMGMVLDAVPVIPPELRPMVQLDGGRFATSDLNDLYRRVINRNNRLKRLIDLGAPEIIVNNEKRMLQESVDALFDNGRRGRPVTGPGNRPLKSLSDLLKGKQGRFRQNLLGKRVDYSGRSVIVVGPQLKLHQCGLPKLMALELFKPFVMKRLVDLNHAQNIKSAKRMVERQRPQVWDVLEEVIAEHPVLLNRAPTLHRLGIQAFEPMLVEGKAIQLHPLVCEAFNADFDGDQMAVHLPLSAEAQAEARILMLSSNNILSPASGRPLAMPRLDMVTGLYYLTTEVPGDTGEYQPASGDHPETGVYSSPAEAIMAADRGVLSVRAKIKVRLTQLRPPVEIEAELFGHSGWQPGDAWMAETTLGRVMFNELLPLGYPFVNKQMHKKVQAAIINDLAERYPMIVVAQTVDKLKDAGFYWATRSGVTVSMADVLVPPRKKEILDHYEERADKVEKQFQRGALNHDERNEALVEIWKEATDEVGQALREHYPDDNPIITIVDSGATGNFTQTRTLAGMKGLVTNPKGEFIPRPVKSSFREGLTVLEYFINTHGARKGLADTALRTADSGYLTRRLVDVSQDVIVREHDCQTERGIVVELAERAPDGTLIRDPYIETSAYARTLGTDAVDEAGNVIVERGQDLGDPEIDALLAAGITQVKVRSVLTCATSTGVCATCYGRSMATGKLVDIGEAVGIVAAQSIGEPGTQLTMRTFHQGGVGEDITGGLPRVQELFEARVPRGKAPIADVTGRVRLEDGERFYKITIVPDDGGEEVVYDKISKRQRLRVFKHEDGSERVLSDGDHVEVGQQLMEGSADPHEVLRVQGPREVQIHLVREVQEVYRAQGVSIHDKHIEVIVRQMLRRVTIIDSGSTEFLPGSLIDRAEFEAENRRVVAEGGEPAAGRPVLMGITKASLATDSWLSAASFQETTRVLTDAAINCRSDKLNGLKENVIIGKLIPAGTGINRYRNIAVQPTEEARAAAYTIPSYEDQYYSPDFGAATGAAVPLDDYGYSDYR
T1 sequence (P9WGI1 whole entry, further chain): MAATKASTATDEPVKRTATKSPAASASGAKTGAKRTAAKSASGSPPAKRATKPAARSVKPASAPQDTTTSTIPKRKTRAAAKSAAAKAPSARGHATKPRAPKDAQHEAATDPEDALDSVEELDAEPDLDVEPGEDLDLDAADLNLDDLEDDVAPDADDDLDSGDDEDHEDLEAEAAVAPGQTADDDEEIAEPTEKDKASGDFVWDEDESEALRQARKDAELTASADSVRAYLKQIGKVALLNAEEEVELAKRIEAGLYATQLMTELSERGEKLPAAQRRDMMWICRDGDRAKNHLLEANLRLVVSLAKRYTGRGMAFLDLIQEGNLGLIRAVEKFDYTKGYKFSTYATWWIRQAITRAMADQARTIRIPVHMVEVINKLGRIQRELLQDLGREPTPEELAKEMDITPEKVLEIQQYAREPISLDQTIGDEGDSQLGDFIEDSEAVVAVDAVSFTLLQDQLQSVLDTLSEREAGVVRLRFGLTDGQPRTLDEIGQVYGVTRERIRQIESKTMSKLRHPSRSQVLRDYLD

SMILES	MIC [1] [mg/L]	IC90 [2] [mg/L]	MIC (C. difficile 630) [mg/L]	also measured
CO[C@H]1/C=C/O[C@@]2(C)Oc3c(C)c(O)c4c(O)c(c(/C=N/N5CCN(C)CC5)c(O)c4c3C2=O)NC(=O)/C(C)=C\C=C\[C@H](C)[C@H](O)[C@@H](C)[C@@H](O)[C@@H](C)[C@H](OC(C)=O)[C@@H]1C [Rif, Rifampicin, reference compound]	< 0.12			
CC[C@H]1/C=C(\C)[C@@H](O)C/C=C/C=C(\CN(C)Cc2nnc(-c3ccccc3)o2)C(=O)O[C@H]([C@@H](C)O)C/C=C(C)/C=C(\C)[C@@H]1O[C@@H]1OC(C)(C)[C@@H](OC(=O)C(C)C)[C@H](O)[C@@H]1O [compound 7]	8 (≈ 9.57 µM)	8 (≈ 9.57 µM)	16 (≈ 19.1 µM)	
CC[C@H]1/C=C(\C)[C@@H](O)C/C=C/C=C(\CNc2nccs2)C(=O)O[C@H]([C@@H](C)O)C/C=C(C)/C=C(\C)[C@@H]1O[C@@H]1OC(C)(C)[C@@H](OC(=O)C(C)C)[C@H](O)[C@@H]1O [compound 8]		16 (≈ 21.4 µM)	4 to 8 (≈ 5.36 to 10.7 µM)	Inhibition zone C. crescentus pfuhAh (C. crescentus pfhuA): 81 ± 12 mm2; Inhibition zone C. crescentus pfuhAh_∆acrABnodT [3]: 263 ± 32 mm2
CC[C@H]1/C=C(\C)[C@@H](O)C/C=C/C=C(\CNc2nc3ccccc3s2)C(=O)O[C@H]([C@@H](C)O)C/C=C(C)/C=C(\C)[C@@H]1O[C@@H]1OC(C)(C)[C@@H](OC(=O)C(C)C)[C@H](O)[C@@H]1O [compound 9]	4 to 8 (≈ 5.02 to 10 µM)	8 (≈ 10 µM)	2 (≈ 2.51 µM)	
CC[C@H]1/C=C(\C)[C@@H](O)C/C=C/C=C(\CNc2nc(COc3ccccc3)cs2)C(=O)O[C@H]([C@@H](C)O)C/C=C(C)/C=C(\C)[C@@H]1O[C@@H]1OC(C)(C)[C@@H](OC(=O)C(C)C)[C@H](O)[C@@H]1O [compound 10]	4 to 8 (≈ 4.69 to 9.38 µM)	8 (≈ 9.38 µM)	1 (≈ 1.17 µM)	MIC C. difficile (C. difficile 630): 1 mg/L (≈ 1.17 µM); IC50 (M. tuberculosis RNAP): 0.17 ± 0.06 µM
CC[C@H]1/C=C(\C)[C@@H](O)C/C=C/C=C(\CNc2nc(-c3ccccc3)cs2)C(=O)O[C@H]([C@@H](C)O)C/C=C(C)/C=C(\C)[C@@H]1O[C@@H]1OC(C)(C)[C@@H](OC(=O)C(C)C)[C@H](O)[C@@H]1O [compound 13]	8 to 16 (≈ 9.72 to 19.4 µM)	8 (≈ 9.72 µM)	4 (≈ 4.86 µM)	IC50 (M. tuberculosis RNAP): 0.13 ± 0.05 µM
CC[C@H]1/C=C(\C)[C@@H](O)C/C=C/C=C(\CNCc2nnc(-c3cc(Cl)cc(Cl)c3O)o2)C(=O)O[C@H]([C@@H](C)O)C/C=C(C)/C=C(\C)[C@@H]1O[C@@H]1OC(C)(C)[C@@H](OC(=O)C(C)C)[C@H](O)[C@@H]1O [compound 17]		32 (≈ 35.3 µM)	2 (≈ 2.21 µM)	
CC[C@H]1/C=C(\C)[C@@H](O)C/C=C/C=C(\CNCc2nnc(C)o2)C(=O)O[C@H]([C@@H](C)O)C/C=C(C)/C=C(\C)[C@@H]1O[C@@H]1OC(C)(C)[C@@H](OC(=O)C(C)C)[C@H](O)[C@@H]1O [compound 19]		16 (≈ 21.1 µM)	32 (≈ 42.1 µM)	
CC[C@H]1/C=C(\C)[C@@H](O)C/C=C/C=C(\CNCc2nnc(-c3ccccc3)s2)C(=O)O[C@H]([C@@H](C)O)C/C=C(C)/C=C(\C)[C@@H]1O[C@@H]1OC(C)(C)[C@@H](OC(=O)C(C)C)[C@H](O)[C@@H]1O [compound 20]	2 (≈ 2.39 µM)	2 (≈ 2.39 µM)		Inhibition zone C. crescentus pfuhAh (C. crescentus pfhuA): 108 ± 11 mm2; Inhibition zone C. crescentus pfuhAh_∆acrABnodT [3]: 241 ± 40 mm2
CC[C@H]1/C=C(\C)[C@@H](O)C/C=C/C=C(\CNCc2nnc(-c3cc(Cl)cc(Cl)c3)o2)C(=O)O[C@H]([C@@H](C)O)C/C=C(C)/C=C(\C)[C@@H]1O[C@@H]1OC(C)(C)[C@@H](OC(=O)C(C)C)[C@H](O)[C@@H]1O [compound 21]	2 (≈ 2.24 µM)	8 (≈ 8.98 µM)	4 (≈ 4.49 µM)	Inhibition zone C. crescentus pfuhAh_∆acrABnodT [3]: 73 ± 11 mm2
CC[C@H]1/C=C(\C)[C@@H](O)C/C=C/C=C(\CNCc2nnc(-c3cccc(O)c3O)o2)C(=O)O[C@H]([C@@H](C)O)C/C=C(C)/C=C(\C)[C@@H]1O[C@@H]1OC(C)(C)[C@@H](OC(=O)C(C)C)[C@H](O)[C@@H]1O [compound 22]	2 (≈ 2.34 µM)	4 (≈ 4.68 µM)	8 (≈ 9.37 µM)	
CC[C@H]1/C=C(\C)[C@@H](O)C/C=C/C=C(\CNCc2nnc(-c3ccc(C(F)(F)F)cc3)o2)C(=O)O[C@H]([C@@H](C)O)C/C=C(C)/C=C(\C)[C@@H]1O[C@@H]1OC(C)(C)[C@@H](OC(=O)C(C)C)[C@H](O)[C@@H]1O [compound 23]			4 (≈ 4.49 µM)	IC90 [2, 4]: 8 mg/L (≈ 8.99 µM); MIC [1, 5]: 2 mg/L (≈ 2.25 µM)
CC[C@H]1/C=C(\C)[C@@H](O)C/C=C/C=C(\CNc2ccc(C#N)cc2)C(=O)O[C@H]([C@@H](C)O)C/C=C(C)/C=C(\C)[C@@H]1O[C@@H]1OC(C)(C)[C@@H](OC(=O)C(C)C)[C@H](O)[C@@H]1O [compound 24]			4 (≈ 5.23 µM)	activity against M. tuberculosis (in words) [2]: showed activity; IC90 [2, 4]: 16 mg/L (≈ 20.9 µM); MIC [1, 5]: 16 mg/L (≈ 20.9 µM)
